Columns and labels:
[1] = target: T1, cGMP-dependent protein kinase 1 (Homo sapiens) (UniProt Q13976); test: Selectivity interaction (KinomeScan (DiscoverX)) EUB0000229b PRKG1; conditions: at 10 µM
T1 sequence (whole entry): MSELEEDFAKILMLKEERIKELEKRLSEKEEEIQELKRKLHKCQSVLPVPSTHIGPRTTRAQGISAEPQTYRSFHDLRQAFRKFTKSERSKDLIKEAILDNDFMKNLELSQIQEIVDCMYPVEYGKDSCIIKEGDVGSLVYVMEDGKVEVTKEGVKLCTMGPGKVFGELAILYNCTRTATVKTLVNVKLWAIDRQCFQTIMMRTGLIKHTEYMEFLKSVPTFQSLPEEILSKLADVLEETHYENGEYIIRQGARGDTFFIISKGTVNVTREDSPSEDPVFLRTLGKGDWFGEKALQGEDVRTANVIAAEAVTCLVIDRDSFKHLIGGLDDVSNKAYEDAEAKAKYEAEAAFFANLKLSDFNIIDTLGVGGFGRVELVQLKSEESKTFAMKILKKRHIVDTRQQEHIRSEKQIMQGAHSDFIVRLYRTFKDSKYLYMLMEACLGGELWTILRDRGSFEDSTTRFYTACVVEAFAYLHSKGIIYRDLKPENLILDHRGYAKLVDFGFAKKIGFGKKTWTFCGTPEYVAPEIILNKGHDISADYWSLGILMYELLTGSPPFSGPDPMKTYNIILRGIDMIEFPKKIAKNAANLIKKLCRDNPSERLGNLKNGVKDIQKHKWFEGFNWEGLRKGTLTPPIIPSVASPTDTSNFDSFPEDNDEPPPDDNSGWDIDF

[2] = target: Vascular endothelial growth factor receptor 3 (Homo sapiens, UniProt P35916); test: Selectivity interaction (KinomeScan (DiscoverX)) EUB0000229b FLT4; conditions: at 10 µM
[3] = target: Serine/threonine-protein kinase PLK1 (Homo sapiens, UniProt P53350); test: Selectivity interaction (ActivX KiNativ screen (kinase selectivity in THP-1 cell lysates)) EUB0000639a PLK1; assay type: subcellular; conditions: lysate, at 0.01 µM
[4] = target: Protein kinase C eta type (Homo sapiens) (UniProt P24723); test: Selectivity interaction (Kinase panel (Invitrogen)) EUB0000639a PRKCH; conditions: at 200 nM
[5] = target: Protein-tyrosine kinase 2-beta (Homo sapiens) (UniProt Q14289); test: Selectivity interaction (KinomeScan (DiscoverX)) EUB0000618a PTK2B; conditions: at 10 µM
[6] = system: Leucine-rich repeat serine/threonine-protein kinase 2 (Homo sapiens), Q5S007 [G2019S]; conditions: at 10 µM
[7] = target: Myosin light chain kinase 2, skeletal/cardiac muscle (Homo sapiens) (UniProt Q9H1R3); conditions: at 10 µM
[8] = target: Ribosomal protein S6 kinase alpha-5 (Homo sapiens) (UniProt O75582); conditions: at 10 µM
[9] = target: T2, Protein arginine N-methyltransferase 9 (Homo sapiens) (UniProt Q6P2P2); test: Selectivity interaction (Methyltransferase screen (radiometric assays, panel of 8 PRMTs, 21 protein lysine methyltransferases, 3 DNA methyltransferases, and one RNA methyltransferase)) EUB0000272b PRMT9
T2 sequence (whole entry): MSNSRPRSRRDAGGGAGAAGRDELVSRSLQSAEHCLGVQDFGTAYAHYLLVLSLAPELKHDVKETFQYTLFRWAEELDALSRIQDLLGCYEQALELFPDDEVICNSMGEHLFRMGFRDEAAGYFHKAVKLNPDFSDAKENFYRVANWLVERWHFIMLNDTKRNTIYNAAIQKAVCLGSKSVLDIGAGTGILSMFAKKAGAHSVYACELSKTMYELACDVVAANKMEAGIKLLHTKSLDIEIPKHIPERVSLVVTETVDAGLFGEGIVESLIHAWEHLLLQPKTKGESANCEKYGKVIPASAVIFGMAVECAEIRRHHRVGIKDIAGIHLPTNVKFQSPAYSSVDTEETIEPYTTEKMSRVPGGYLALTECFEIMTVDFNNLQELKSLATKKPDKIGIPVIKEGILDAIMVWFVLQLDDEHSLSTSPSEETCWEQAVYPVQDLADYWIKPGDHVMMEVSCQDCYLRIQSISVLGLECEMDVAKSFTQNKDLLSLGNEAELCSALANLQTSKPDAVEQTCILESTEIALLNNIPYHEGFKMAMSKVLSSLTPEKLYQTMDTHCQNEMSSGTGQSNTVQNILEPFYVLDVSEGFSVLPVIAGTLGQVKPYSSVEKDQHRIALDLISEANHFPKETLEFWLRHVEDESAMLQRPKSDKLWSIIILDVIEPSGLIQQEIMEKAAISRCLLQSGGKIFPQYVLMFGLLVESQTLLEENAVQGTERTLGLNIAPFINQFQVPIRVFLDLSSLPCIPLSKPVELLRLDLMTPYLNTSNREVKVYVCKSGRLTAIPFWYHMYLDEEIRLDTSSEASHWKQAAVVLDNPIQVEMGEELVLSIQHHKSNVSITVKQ

[10] = target: T3, TGF-beta receptor type-1 (Homo sapiens) (UniProt P36897); test: Selectivity interaction (LanthaScreen Eu Kinase Binding Assay) EUB0001632a TGFBR1; conditions: at 10 µM
T3 sequence (whole entry): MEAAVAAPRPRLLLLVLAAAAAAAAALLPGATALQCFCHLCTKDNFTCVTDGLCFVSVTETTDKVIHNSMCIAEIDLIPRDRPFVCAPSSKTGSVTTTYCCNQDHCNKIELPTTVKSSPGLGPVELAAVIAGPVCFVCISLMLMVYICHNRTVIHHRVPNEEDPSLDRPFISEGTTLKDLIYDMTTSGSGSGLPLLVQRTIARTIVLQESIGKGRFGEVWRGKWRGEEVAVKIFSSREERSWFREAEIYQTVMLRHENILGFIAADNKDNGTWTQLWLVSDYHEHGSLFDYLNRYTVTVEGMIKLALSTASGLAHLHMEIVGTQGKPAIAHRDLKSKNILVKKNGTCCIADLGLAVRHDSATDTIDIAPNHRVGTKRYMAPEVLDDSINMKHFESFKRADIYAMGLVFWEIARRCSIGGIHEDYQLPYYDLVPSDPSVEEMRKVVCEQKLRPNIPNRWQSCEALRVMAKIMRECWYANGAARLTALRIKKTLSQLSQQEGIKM

[11] = target: Protein kinase C delta type (Homo sapiens) (UniProt Q05655); test: Selectivity interaction (ProQinase) EUB0000171b PRKCD
Chain of Protein kinase C delta type (Homo sapiens) (Q05655 whole entry, looked up): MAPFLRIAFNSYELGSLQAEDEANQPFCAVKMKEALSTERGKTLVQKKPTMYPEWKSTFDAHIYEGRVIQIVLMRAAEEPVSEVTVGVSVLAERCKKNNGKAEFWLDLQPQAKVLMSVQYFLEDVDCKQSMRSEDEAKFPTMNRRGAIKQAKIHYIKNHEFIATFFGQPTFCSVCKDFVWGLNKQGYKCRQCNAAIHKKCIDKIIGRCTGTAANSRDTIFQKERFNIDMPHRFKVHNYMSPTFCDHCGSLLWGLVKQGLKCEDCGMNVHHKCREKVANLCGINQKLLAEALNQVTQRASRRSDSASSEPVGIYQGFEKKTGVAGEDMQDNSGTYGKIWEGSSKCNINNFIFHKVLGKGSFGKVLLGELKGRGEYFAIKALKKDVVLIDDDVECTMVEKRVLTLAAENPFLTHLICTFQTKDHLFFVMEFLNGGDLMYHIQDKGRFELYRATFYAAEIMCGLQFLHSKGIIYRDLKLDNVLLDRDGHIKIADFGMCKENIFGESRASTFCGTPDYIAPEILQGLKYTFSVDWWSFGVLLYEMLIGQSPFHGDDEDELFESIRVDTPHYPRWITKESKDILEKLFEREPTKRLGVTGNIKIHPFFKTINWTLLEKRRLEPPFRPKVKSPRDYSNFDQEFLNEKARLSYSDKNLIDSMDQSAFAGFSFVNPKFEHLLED

Chain of Protein kinase C eta type (Homo sapiens) (P24723 whole entry): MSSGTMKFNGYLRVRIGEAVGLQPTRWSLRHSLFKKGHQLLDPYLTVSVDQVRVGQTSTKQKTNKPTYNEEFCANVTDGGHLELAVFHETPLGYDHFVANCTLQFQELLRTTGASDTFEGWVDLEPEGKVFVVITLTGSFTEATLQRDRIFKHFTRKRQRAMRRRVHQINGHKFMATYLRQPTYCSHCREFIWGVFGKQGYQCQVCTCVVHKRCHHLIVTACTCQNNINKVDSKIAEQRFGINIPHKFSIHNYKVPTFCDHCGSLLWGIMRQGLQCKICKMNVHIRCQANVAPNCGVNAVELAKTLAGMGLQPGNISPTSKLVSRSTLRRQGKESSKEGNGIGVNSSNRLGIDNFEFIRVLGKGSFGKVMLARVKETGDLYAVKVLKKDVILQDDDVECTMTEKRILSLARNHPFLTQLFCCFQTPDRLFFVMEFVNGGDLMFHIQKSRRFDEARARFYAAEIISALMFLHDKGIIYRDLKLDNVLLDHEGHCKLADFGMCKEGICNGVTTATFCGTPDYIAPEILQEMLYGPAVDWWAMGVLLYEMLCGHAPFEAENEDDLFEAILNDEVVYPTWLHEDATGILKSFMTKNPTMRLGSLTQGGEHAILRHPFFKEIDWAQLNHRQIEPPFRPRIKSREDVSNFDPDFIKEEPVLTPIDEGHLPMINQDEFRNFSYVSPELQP
Chain of Ribosomal protein S6 kinase alpha-5 (Homo sapiens) (O75582 whole entry, looked up): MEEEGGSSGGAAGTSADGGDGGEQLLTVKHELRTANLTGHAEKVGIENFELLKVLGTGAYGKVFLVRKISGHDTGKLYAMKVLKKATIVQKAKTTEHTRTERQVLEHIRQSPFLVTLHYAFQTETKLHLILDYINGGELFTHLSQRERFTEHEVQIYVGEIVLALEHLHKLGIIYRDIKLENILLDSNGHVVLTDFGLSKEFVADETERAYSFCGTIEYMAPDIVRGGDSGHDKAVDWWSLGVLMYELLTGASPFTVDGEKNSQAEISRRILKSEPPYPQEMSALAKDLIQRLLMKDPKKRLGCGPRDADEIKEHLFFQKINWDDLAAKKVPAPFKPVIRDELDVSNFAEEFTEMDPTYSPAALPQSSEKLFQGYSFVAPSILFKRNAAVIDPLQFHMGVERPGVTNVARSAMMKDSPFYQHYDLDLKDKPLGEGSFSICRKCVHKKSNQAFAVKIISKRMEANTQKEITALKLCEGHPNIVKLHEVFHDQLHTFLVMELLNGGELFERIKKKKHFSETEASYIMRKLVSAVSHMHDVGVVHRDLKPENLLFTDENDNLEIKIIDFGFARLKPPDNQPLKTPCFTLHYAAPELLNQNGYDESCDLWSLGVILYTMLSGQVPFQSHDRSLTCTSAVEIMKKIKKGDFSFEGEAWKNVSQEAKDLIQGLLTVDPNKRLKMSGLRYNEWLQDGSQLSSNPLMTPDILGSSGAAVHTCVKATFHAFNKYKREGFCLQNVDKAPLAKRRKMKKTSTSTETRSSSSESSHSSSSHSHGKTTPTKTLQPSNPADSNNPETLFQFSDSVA
Chain of Myosin light chain kinase 2, skeletal/cardiac muscle (Homo sapiens) (Q9H1R3 whole entry): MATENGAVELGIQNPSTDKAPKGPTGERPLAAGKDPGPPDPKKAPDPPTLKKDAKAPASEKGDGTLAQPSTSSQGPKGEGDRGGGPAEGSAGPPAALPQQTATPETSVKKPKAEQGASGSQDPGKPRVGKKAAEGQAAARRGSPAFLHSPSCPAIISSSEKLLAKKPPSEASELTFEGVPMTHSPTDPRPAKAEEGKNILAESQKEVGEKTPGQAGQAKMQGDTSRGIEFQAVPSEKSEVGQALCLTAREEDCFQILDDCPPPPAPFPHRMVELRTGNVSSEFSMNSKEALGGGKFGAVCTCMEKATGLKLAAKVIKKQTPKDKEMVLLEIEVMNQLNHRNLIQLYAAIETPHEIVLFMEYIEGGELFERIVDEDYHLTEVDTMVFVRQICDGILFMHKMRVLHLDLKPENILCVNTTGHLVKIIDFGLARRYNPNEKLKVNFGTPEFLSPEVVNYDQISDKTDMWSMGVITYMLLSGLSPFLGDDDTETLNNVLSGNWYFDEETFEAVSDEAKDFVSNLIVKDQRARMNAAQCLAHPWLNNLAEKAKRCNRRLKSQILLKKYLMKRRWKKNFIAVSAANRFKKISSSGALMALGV
Chain of Serine/threonine-protein kinase PLK1 (P53350 whole entry): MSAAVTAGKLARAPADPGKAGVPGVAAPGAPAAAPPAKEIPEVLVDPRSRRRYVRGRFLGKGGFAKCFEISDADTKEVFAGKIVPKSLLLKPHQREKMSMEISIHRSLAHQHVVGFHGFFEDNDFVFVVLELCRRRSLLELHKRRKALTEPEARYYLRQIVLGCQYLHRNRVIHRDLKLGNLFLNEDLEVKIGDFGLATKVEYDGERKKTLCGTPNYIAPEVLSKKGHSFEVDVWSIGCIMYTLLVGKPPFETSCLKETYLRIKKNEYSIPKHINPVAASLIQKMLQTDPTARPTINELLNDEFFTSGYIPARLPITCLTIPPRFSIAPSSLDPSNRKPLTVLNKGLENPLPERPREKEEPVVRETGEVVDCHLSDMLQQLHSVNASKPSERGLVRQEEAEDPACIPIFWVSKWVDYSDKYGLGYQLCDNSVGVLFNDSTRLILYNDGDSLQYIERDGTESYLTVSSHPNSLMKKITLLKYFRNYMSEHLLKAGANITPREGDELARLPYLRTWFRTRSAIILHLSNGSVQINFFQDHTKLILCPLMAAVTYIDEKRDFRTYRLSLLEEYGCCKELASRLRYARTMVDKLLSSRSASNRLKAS
Chain of Protein-tyrosine kinase 2-beta (Homo sapiens) (Q14289 whole entry, looked up): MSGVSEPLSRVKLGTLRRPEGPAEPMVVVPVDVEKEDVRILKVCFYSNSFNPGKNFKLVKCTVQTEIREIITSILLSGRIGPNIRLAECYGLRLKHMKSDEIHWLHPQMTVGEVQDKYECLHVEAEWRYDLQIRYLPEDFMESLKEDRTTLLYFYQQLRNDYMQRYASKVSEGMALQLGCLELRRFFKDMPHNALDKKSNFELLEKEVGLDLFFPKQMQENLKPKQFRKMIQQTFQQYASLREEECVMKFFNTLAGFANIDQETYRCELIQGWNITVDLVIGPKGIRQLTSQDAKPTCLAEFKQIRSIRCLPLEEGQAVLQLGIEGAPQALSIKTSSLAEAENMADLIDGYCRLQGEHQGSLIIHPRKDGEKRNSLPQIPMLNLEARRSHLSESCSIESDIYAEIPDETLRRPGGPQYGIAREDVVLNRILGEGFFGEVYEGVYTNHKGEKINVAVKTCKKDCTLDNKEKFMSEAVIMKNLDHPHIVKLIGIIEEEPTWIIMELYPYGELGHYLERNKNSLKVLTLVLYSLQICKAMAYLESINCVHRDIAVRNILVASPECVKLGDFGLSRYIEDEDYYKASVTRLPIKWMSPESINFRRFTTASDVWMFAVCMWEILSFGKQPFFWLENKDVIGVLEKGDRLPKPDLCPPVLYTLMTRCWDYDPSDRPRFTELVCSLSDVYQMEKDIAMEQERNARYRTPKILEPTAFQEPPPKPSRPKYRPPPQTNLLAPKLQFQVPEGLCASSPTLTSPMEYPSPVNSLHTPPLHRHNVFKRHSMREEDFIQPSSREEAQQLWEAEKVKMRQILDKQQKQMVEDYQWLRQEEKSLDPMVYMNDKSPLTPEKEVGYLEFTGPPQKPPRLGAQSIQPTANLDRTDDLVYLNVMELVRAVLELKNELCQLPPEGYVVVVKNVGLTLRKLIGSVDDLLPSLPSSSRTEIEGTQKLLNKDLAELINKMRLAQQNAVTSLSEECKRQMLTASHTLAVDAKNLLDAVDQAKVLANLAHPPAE

COc1cc(N(C)c2ccnc3ccc(C(F)(F)F)cc23)cc(OC)c1OC
% binding [1]: 76% | % binding [2]: 96%

CC[C@@H]1[C@H](F)C(=O)N[C@@H]1COc1nccc2cc(C(N)=O)c(OC)cc12 [ZIMLOVISERTIB]
% of inhibition [3]: -0.3% | % of inhibition [4]: 7.47%

O[C@H]1CC[C@H](Nc2ncc3nc(Nc4c(F)cc(F)cc4F)n([C@H]4CCOC4)c3n2)CC1
% of control [5]: 91%

Cc1cc([C@@H](C)Nc2ccccc2C(=O)O)c2nc(N3CCOCC3)cc(=O)n2c1 [AZD-6482]
% of control [6]: 100% | % of control [7]: 100% | % of control [8]: 81%

Cc1cc(C)cc([C@H]2c3cc(C)ccc3NC(=O)CN2C(=O)c2ccc(Br)s2)c1
% of activity ([9]; at 1 µM): 105% | % of activity ([9]; at 10 µM): 105%

Cn1cc(-n2cnc3c(NCc4nc5cc(Cl)c(Cl)cc5[nH]4)nc(N4CCOCC4)nc32)cn1
% of inhibition [10]: 0.691%

C=CC(=O)Nc1cccc(C(=O)Nc2ccc(Nc3cc(-c4[nH]c(SC)nc4C)ccn3)cc2)c1
% of control ([11]; at 1 µM): 84% | % of control ([11]; at 5 µM): 94%

— ChEMBL document CHEMBL5465560, “Selectivity Literature for EUbOPEN Chemogenomic Library” (2024)
